The values below come from patent US8247569B2, “Cyclohexane derivative and pharmaceutical use thereof” (Toray Industries, Inc., priority 2008, dated 2012).

Read-outs that look alike come from different tables or passages of the source.

The subject of series [1] is mouse sciatic nerve-ligation model (Seltzer model). As to the kind of experiment: mouse partial sciatic nerve ligation model (Seltzer model), von Frey test. Conditions: for von Frey total score compared to the vehicle group: 1 hour after oral administration, doses as in Table 11; for von Frey Total Score Observed 1 Hour after Oral Administration (mean ± standard error), Compound-administered group: n = 5 to 6.

The nature of series [2]: human liver microsomal stability assay. The format is in vitro ADME. Conditions: liver microsomes, pH 7.4, human liver microsomes 0.5 mg/mL, test compound 2 μmol/L, 37° C., 0-30 min, read-out: Human hepatic intrinsic clearance. As for the experimental part:
A liver microsomal stability assay, which is known to be an in vitro assay for evaluation of the stability of a compound against hepatic metabolism, was carried out to evaluate the stability of Compound (I) against human and mouse hepatic metabolism.
A total of 4 times of experiments were carried out for the combinations of the compound of Example 2-B or the compound of Comparative Example 29 as the test compound and human liver microsomes (Xenotech) or mouse liver microsomes (Xenotech) as the liver microsomes.
The respective reagents to be used for the liver microsomal stability assay were prepared as follows. That is, an appropriate amount of D-glucose 6-phosphate disodium salt (hereinafter referred to as G6P) was dissolved in distilled water at 100 mmol/L, to prepare 100 mmol/L aqueous G6P solution. In 5 mL of distilled water, 1000 units of Glucose 6-phosphate dehydrogenase from Yeast (hereinafter referred to as G6PDH) was dissolved, to prepare 200 units/mL aqueous G6PDH solution. An appropriate amount of MgCl2 was dissolved in distilled water at 100 mmol/L, to prepare 100 mmol/L aqueous MgCl2 solution. To 500 mL of 200 mmol/L aqueous K2HPO4 solution, 200 mmol/L aqueous KH2PO4 solution (about 130 mL) was added, and pH was adjusted to 7.4, to prepare 200 mmol/L KH2PO4/K2HPO4 buffer pH7.4 (hereinafter referred to as 200 mmol/L PB). β-nicotinamide-adenine dinucleotide phosphate, reduced form, tetrasodium salt (hereinafter referred to as (NADPH) was dissolved in distilled water such that the NADPH content becomes 10 mmol/L based on the purity (Purity NADPH) in the assay data described in the attached document, to prepare 10 mmol/L aqueous NADPH solution.
The liver microsomal stability assay was carried out according to the following procedure. First, the reagents listed in Table 12 (excluding microsomes) were mixed together to prepare a reaction mixture, and the reaction mixture was aliquoted in 130 μL volumes to 4 wells (which play roles as the wells for the 0-minute reaction, well for the 30-minute reaction, well for the 20-minute reaction and well for the 10-minute reaction, respectively) in a 96-well tube plate (BM Equipment Co., Ltd; hereinafter referred to as plate). The entire plate was covered with a silicone cap, and the plate was subjected to preincubation by being soaked in a water bath at 37° C. for 10 minutes.
After the preincubation, 3.75 μL of 20 mg/mL microsome suspension+16.25 μL of distilled water (20 μL in total) were added to the well for the 30-minute reaction, and the plate was covered with the cap, followed by soaking the plate in a water bath at 37° C. to initiate the reaction.
Ten minutes after the beginning of the reaction, 3.75 μL of 20 mg/mL microsome suspension+16.25 μL of distilled water (20 μL in total) were added to the well for the 20-minute reaction, and 20 minutes after the beginning of the reaction, 3.75 μL of 20 mg/mL microsome suspension+16.25 μL of distilled water (20 μL in total) were added to the well for the 10-minute reaction. The reaction was further continued by keeping the plate soaked in the water bath at 37° C.
Thirty minutes after the beginning of the reaction, the plate was removed from the water bath, and 120 μL of acetonitrile was added to each well, followed by covering the plate with the cap, stirring the plate for 10 seconds with Direct Mixer, and stopping the reaction by 10 minutes of ice cooling. After the reaction was stopped, 3.75 μL of 20 mg/mL microsome suspension+16.25 μL of distilled water (20 μL in total) were added to the well for the 0-minute reaction.
The reaction liquid in each well was centrifuged at 4° C. at 2500 rpm for 10 minutes, and the supernatant was transferred to a glass-coated microplate (TOMSIC Plate+) to begin LC/MS/MS analysis. The conditions for the LC/MS/MS analysis were as follows: […]

The test system of series [3] is mouse acetic acid writhing model. Kind of series: mouse acetic acid writhing model (nociceptive pain). As to conditions: for ED50: male ddY mice, oral administration 45 min before 0.6% acetic acid i.p., dose suppressing 50% of writhing responses vs vehicle group, vehicle A or B. The format is in vivo.

For the compound `COc1ccc(-c2cc(C3(O)CCC(O)CC3)nn2-c2ccc(OC)cc2)cc1` (single isomer, unassigned) [Example 4-B, 1-(1,5-Bis(4-methoxyphenyl)-1H-pyrazol-3-yl)cyclohexan-cis-1,4-diol], the “von Frey total score compared to the vehicle group” value in series [1] is on record as “significantly improved”. In addition, the “von Frey Total Score Observed 1 Hour after Oral Administration (mean ± standard error), Compound-administered group” value in series [1] (dose 10 mg/kg oral, […]) stood at 2.2 ± 0.5. For the same compound, the microsomal CLint at 2 μmol/L in series [2] came to 8.69 µL/min/mg.

In the case of `COc1ccc(-c2nc(C3(O)CCC(O)CC3)oc2-c2ccc(OC)cc2)cc1` (single isomer, unassigned) [Example 67-B, 4-(4,5-Bis(4-methoxyphenyl)oxazol-2-yl)cyclohexan-cis-1,4-diol], the “von Frey total score compared to the vehicle group” value in series [1] is listed as “significantly improved”. Moreover, the “von Frey Total Score Observed 1 Hour after Oral Administration (mean ± standard error), Compound-administered group” value in series [1] (dose 10 mg/kg oral, […]) is given as 0.8 ± 0.7. For the same compound, the ED50 in series [3] (Mus musculus, read-out: ED50) is 7.32 mg/kg. Further, in series [2], the microsomal CLint at 2 μmol/L came to 12.7 µL/min/mg.

For `COc1ccc(-n2nc(C3(O)CCC(O)CC3)cc2-c2ccc(S(C)(=O)=O)cc2)cc1` (stereo not drawn) [Comparative Example 3], the ED50 in series [3] (Mus musculus, read-out: ED50) was > 10 mg/kg.

With `COc1ccc(-n2nc(C3(OC(C)=O)CCC(O)CC3)cc2-c2ccc(C)cc2)cc1` (stereo not drawn) [Comparative Example 26, c-4-Hydroxy-1-(1-(4-methoxyphenyl)-5-(p-tolyl)-1H-pyrazol-3-yl)-cyclohexan-r-1-yl acetate], the ED50 in series [3] (Mus musculus, read-out: ED50) is > 10 mg/kg.

Consider `COc1ccc(-n2nc(C3(OC)CCC(O)CC3)cc2-c2ccc(C)cc2)cc1` (stereo not drawn) [Comparative Example 27, 4-Methoxy-4-(1-(4-methoxyphenyl)-5-p-tolyl-1H-pyrazol-3-yl)cyclohexanol], for which, in series [3] (Mus musculus, read-out: ED50), the ED50 is > 10 mg/kg.

With `COc1ccc(-n2nc(C3(O)CCC(O)CC3)c(F)c2-c2ccc(C)cc2)cc1` (stereo not drawn) [Comparative Example 28, 1-(4-Fluoro-1-(4-methoxyphenyl)-5-(p-tolyl)-1H-pyrazol-3-yl)cyclohexan-cis-1,4-diol], the ED50 in series [3] (Mus musculus, read-out: ED50) was > 10 mg/kg.

As to `NS(=O)(=O)c1ccc(-n2nc(C3CCCCC3)cc2-c2ccccc2)cc1CO` [Comparative Example 30, 4-(3-Cyclohexyl-5-phenyl-1H-pyrazol-1-yl)-2-(hydroxymethyl)benzenesulfonamide], in series [3] (Mus musculus, read-out: ED50), the ED50 is > 10 mg/kg. Besides, the “reduction in the number of writhing responses” value in series [3] (administration of 10 mg/kg, t-test) is reported as “did not cause significant reduction”.

On to `COc1ccc(-n2nc(C3(O)CCCCC3)cc2-c2ccc(C)cc2)cc1` [Compound 1], for which, in series [3] (Mus musculus, read-out: ED50), the ED50 stood at 3.78 mg/kg.

Turning to `CCc1ccc(-c2cc(C3(O)CCC(O)CC3)nn2-c2ccc(OC)cc2)cc1` (stereo not drawn) [Compound 28], the ED50 in series [3] (Mus musculus, read-out: ED50) came out at 5.27 mg/kg.

`COc1ccc(-n2nc(C3(O)CCC(O)CC3)cc2-c2ccc(C)cc2)cc1F` (stereo not drawn) [Compound 29]: in series [3] (Mus musculus, read-out: ED50), the ED50 came out at 3.77 mg/kg.

Consider `COc1ccc(-n2nc(C3(O)CCC(O)CC3)cc2-c2ccc(C)cc2)cc1F` (stereo not drawn) [Compound 30], for which the “von Frey Total Score Observed 1 Hour after Oral Administration (mean ± standard error), Compound-administered group” value in series [1] (dose 10 mg/kg oral, […]) was 1.2 ± 0.6.

In the case of `COc1ccc(-n2nc(C3(O)CCC(O)CC3)cc2-c2ccc(C)c(F)c2)cc1` (stereo not drawn) [Compound 31], the “von Frey Total Score Observed 1 Hour after Oral Administration (mean ± standard error), Compound-administered group” value in series [1] (dose 3 mg/kg oral, vehicle B (27% HP-β-CD)) was determined as 0.7 ± 0.5. Also, the 50% effective dose (ED50) in series [3] (Mus musculus, read-out: ED50) stood at 0.41 mg/kg.

On to `Cc1ccc(-c2cc(C3(O)CCC(O)CC3)nn2-c2ccc(Cl)cc2)cc1` (stereo not drawn) [Example 6-A, 1-(1-(4-Chlorophenyl)-5-p-tolyl-1H-pyrazol-3-yl)cyclohexan-trans-1,4-diol], for which the 50% effective dose (ED50) in series [3] (Mus musculus, read-out: ED50) was found to be 7.97 mg/kg.

For `CCc1ccc(-c2cc(C3(O)CCC(O)CC3)nn2-c2ccc(OC)cc2)cc1` (stereo not drawn) [Example 28], in series [2], the microsomal CLint at 2 μmol/L was 3.19 µL/min/mg.

Regarding `COc1ccc(-n2nc(C3(O)CCC(O)CC3)cc2-c2ccc(C)cc2)cc1F` (stereo not drawn) [Example 30], the microsomal CLint at 2 μmol/L in series [2] worked out at 3.92 µL/min/mg.

For the compound `COc1ccc(-n2nc(C3(F)CCC(O)CC3)cc2-c2ccc(C)cc2)cc1` (stereo not drawn) [Example 60, t-4-Fluoro-4-(1-(4-methoxyphenyl)-5-(p-tolyl)-1H-pyrazol-3-yl)-cyclohexan-r-1-ol], the ED50 in series [3] (Mus musculus, read-out: ED50) is 1.37 mg/kg.

`COc1ccc(-n2nc(C3(O)CCC(OC)CC3)cc2-c2ccc(C)cc2)cc1` (stereo not drawn) [Example 63, 4-Methoxy-1-(1-(4-methoxyphenyl)-5-(p-tolyl)-1H-pyrazol-3-yl)cyclohexanol]: in series [3] (Mus musculus, read-out: ED50), the ED50 was found to be 5.36 mg/kg.

Regarding `COc1ccc(-n2nc(C3(CO)CCC(O)CC3)cc2-c2ccc(C)cc2)cc1` (stereo not drawn) [Example 65-A, 4-(Hydroxymethyl)-4-(1-(4-methoxyphenyl)-5-p-tolyl-1H-pyrazol-3-yl)-trans-1,4-cyclohexanol], in series [3] (Mus musculus, read-out: ED50), the ED50 was determined as 1.44 mg/kg.

Regarding `COc1ccc(-c2nc(C3(O)CCC(O)CC3)sc2-c2ccc(C)cc2)cc1` (stereo not drawn) [Example 69-A, 1-(4-(4-Methoxyphenyl)-5-(p-tolyl)thiazol-2-yl)cyclohexan-trans-1,4-diol], the ED50 in series [3] (Mus musculus, read-out: ED50) amounted to 3.02 mg/kg.

The compound `COc1ccc(-c2nc(C3(O)CCC(O)(C(F)(F)F)CC3)sc2-c2ccc(C)cc2)cc1` (stereo not drawn) [Example 70-B, 1-(4-(4-Methoxyphenyl)-5-(p-tolyl)thiazol-2-yl)-4-(trifluoromethyl)cyclohexan-cis-1,4-diol] yielded an ED50 in series [3] of 9.65 mg/kg.

Consider `CCOC(=O)C1CCC(O)(c2cc(-c3ccc(C)cc3)n(-c3ccc(OC)cc3)n2)CC1` (stereo not drawn) [Example 71, Ethyl 4-hydroxy-4-(1-(4-methoxyphenyl)-5-p-tolyl-1H-pyrazol-3-yl)-cis-cyclohexanecarboxylate], for which the ED50 in series [3] (Mus musculus, read-out: ED50) was determined as 1.58 mg/kg.

Regarding `COc1ccc(-n2nc(C3(O)CCC(O)CC3)cc2-c2ccccc2C)cc1` (stereo not drawn) [compound 1], the ED50 in series [3] (Mus musculus, read-out: ED50) was > 10 mg/kg.

For the compound `OC1CCC(O)(c2cc(-c3ccc(Cl)cc3)n(-c3ccc(F)cc3)n2)CC1` (stereo not drawn) [compound 5], the ED50 in series [3] (Mus musculus, read-out: ED50) was > 10 mg/kg.

As to `OC1CCC(O)(c2cc(-c3ccc(Cl)cc3)n(-c3ccc(Cl)cc3Cl)n2)CC1` (stereo not drawn) [compound 7], in series [3] (Mus musculus, read-out: ED50), the ED50 was > 10 mg/kg.

With `COc1ccc(-n2nc(C3(O)CCC(O)CC3)cc2-c2cccc(C)c2)cc1` (stereo not drawn) [compound 10], the ED50 in series [3] (Mus musculus, read-out: ED50) is > 10 mg/kg.

Regarding `Cc1ccc(-c2cc(C3(O)CCC(O)CC3)nn2-c2ccc(F)cc2)cc1` (stereo not drawn) [compound 11], the ED50 in series [3] (Mus musculus, read-out: ED50) was > 10 mg/kg.

`COc1ccc(-n2nc(C3(O)CCC(O)CC3)cc2-c2ccc(F)cc2)cc1` (stereo not drawn) [compound 13]: the ED50 in series [3] (Mus musculus, read-out: ED50) was > 10 mg/kg.

Regarding `OC1CCC(O)(c2cc(-c3ccc(F)cc3)n(-c3ccc(Cl)cc3)n2)CC1` (stereo not drawn) [compound 15], in series [3] (Mus musculus, read-out: ED50), the ED50 is > 10 mg/kg.

`OC1CCC(O)(c2cc(-c3ccc(F)cc3)n(-c3ccc(F)cc3)n2)CC1` (stereo not drawn) [compound 17]: in series [3] (Mus musculus, read-out: ED50), the ED50 was > 10 mg/kg.

As for `OC1CCC(O)(c2cc(-c3ccc(F)cc3)n(-c3ccccc3)n2)CC1` (stereo not drawn) [compound 19], in series [3] (Mus musculus, read-out: ED50), the ED50 is > 10 mg/kg.

Turning to `Cc1ccc(-n2nc(C3(O)CCC(O)CC3)cc2-c2ccc(F)cc2)cc1` (stereo not drawn) [compound 21], the ED50 in series [3] (Mus musculus, read-out: ED50) is > 10 mg/kg.

`Cc1ccc(-c2cc(C3(O)CCC(O)CC3)nn2-c2ccc(S(C)(=O)=O)cc2)cc1` (stereo not drawn) [compound 23]: the ED50 in series [3] (Mus musculus, read-out: ED50) is > 10 mg/kg.

With `COc1ccc(-n2nc(C3(O)CCC(O)CC3)cc2-c2cccnc2OC)cc1` (stereo not drawn) [compound 24], in series [3] (Mus musculus, read-out: ED50), the ED50 was > 10 mg/kg.

On to `NCC1(CC(=O)O)CCCCC1` [gabapentin, reference compound], for which the “analgesic effect 3 hours after the oral administration (von Frey test)” value in series [1] (positive controls, gabapentin 30 mg/kg oral, dose of Comparative Example 29 not given) is “drastically decreased”. The “time of strongest analgesic effect after oral administration (von Frey test)” value in series [1] (positive controls, gabapentin 30 mg/kg oral, dose of Comparative Example 29 not given, FIGS. 1 to 4) came out at 1 h.
